The text below walks through data of patent US9359358B2, “Cyclohexyl azetidine derivatives as JAK inhibitors” (Incyte Holdings Corporation, priority 2011, dated 2016).

SMILES strings stand for the structures. Where a name gives a salt, the structure may show the parent alone. A value given as a limit tells only on which side of the number the result lay.

One test concerns the target T1, human JAK2 (Homo sapiens, UniProt O60674).
T1 construct: JAK2 (a.a. 828-1132); His tag (N); made in house; host or cells: insect cells (baculovirus)
Nature of the test: In Vitro JAK Kinase Assay (HTRF, phosphorylation of a biotinylated peptide), JAK2. The conditions noted are these: assay of Example A. It counts as biochemical. The procedure, abridged:
(§1)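 HTRF detection (SA-APC plus Eu-labeled anti-phosphotyrosine Py20, 40 min after EDTA stop) quantified biotinylated-peptide phosphorylation. Kinase reactions with human JAK1 or JAK2 catalytic domains lasted 1 h at room temperature.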
(In TR-FRET formats the signal depends on donor and acceptor labels being close together.)

The next test has as its target T2, human JAK1 (Homo sapiens, UniProt P23458).
T2 construct: human JAK1 (a.a. 837-1142); His tag (N); made in house; host or cells: insect cells (baculovirus)
Briefly: In Vitro JAK Kinase Assay (HTRF, phosphorylation of a biotinylated peptide), JAK1. The conditions noted are these: catalytic domain a.a. 837-1142, assay of Example A. Type of test: biochemical. The procedure, abridged: as §1

T2 sequence (P23458 849-1154): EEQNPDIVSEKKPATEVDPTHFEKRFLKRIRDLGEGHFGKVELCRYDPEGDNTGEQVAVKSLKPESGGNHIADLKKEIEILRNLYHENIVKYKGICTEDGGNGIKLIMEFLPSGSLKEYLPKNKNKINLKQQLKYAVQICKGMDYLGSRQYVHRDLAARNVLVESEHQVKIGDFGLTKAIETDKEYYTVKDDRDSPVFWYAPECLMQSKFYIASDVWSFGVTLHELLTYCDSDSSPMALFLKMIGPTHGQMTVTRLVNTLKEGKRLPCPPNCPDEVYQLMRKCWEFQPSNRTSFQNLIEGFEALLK
T1 sequence (O60674 828-1132): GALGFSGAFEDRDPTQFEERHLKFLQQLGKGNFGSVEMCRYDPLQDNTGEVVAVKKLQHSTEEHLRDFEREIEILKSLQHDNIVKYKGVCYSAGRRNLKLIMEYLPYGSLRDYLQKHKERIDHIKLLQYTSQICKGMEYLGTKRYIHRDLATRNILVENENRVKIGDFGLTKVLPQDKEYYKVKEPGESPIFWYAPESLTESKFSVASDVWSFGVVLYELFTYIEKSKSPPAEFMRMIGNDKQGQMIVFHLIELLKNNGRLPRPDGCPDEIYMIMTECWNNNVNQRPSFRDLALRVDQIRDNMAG

Usually IC50 stands for the concentration at which inhibition is half-maximal. Lower therefore signals greater potency in that assay. With `N#CCC1(n2cc(-c3ncnc4[nH]ccc34)cn2)CN([C@H]2CC[C@@H](Oc3cc(CNCCCO)nc(C(F)(F)F)n3)CC2)C1` [Example 21, {1-(cis-4-{[6-{[(3-hydroxypropyl)amino]methyl}-2-(trifluoromethyl)pyrimidin-4-yl]oxy}cyclohexyl)-3-[4-(7H-pyrrolo[2,3-d]pyrimidin-4-yl)-1H-pyrazol-1-yl]azetidin-3-yl}acetonitrile tris(trifluoroacetate) (salt)], the “JAK2/JAK1 IC50 ratio” value on human JAK2 (Table 4) was “≧10”. Moreover, at human JAK1 (Table 4), the IC50 is < 10 nM.
With `C[C@H](CO)NC(=O)c1cc(O[C@H]2CC[C@@H](N3CC(CC#N)(n4cc(-c5ncnc6[nH]ccc56)cn4)C3)CC2)nc(C(F)(F)F)c1` [Example 85, 2-[(cis-4-{3-(cyanomethyl)-3-[4-(7H-pyrrolo[2,3-d]pyrimidin-4-yl)-1H-pyrazol-1-yl]azetidin-1-yl}cyclohexyl)oxy]-N-[(1R)-2-hydroxy-1-methylethyl]-6-(trifluoromethyl)isonicotinamide bis(trifluoroacetate)], on human JAK2 (Table 5), the “JAK2/JAK1 IC50 ratio” value is reported as “≧10”. Besides, on human JAK1 (Table 5), the IC50 was < 10 nM.
For `N#CCC1(n2cc(-c3ncnc4[nH]ccc34)cn2)CN([C@H]2CC[C@@H](Oc3cc(CNCCO)cc(C(F)(F)F)n3)CC2)C1` [Example 74, {1-(cis-4-{[4-{[(2-hydroxyethyl)amino]methyl}-6-(trifluoromethyl)pyridin-2-yl]oxy}cyclohexyl)-3-[4-(7H-pyrrolo[2,3-d]pyrimidin-4-yl)-1H-pyrazol-1-yl]azetidin-3-yl}acetonitrile tris(trifluoroacetate)] the same measures were “≧10” and < 10 nM.
Regarding `N#CCC1(n2cc(-c3ncnc4[nH]ccc34)cn2)CN([C@H]2CC[C@@H](Oc3cc(CN4CCC4)cc(C(F)(F)F)n3)CC2)C1` [Example 78, {1-(cis-4-{[4-(azetidin-1-ylmethyl)-6-(trifluoromethyl)pyridin-2-yl]oxy}cyclohexyl)-3-[4-(7H-pyrrolo[2,3-d]pyrimidin-4-yl)-1H-pyrazol-1-yl]azetidin-3-yl}acetonitrile tris(trifluoroacetate)], at human JAK2 (Table 5), the “JAK2/JAK1 IC50 ratio” value is reported as “≧10”. Also, the IC50 at human JAK1 (Table 5) was < 10 nM.
With `N#CCC1(n2cc(-c3ncnc4[nH]ccc34)cn2)CN([C@H]2CC[C@@H](Oc3cc(C4(CO)CC4)nc(C(F)(F)F)n3)CC2)C1` [Example 63, {1-(cis-4-{[6-[1-(hydroxymethyl)cyclopropyl]-2-(trifluoromethyl)pyrimidin-4-yl]oxy}cyclohexyl)-3-[4-(7H-pyrrolo[2,3-d]pyrimidin-4-yl)-1H-pyrazol-1-yl]azetidin-3-yl}acetonitrile bis(trifluoroacetate) (salt)], at human JAK2 (Table 4), the “JAK2/JAK1 IC50 ratio” value is recorded as “≧10”. Besides, the IC50 on human JAK1 (Table 4) was < 10 nM.
As to `CN(C)Cc1cc(O[C@H]2CC[C@@H](N3CC(CC#N)(n4cc(-c5ncnc6[nH]ccc56)cn4)C3)CC2)nc(C(F)(F)F)n1` [Example 1, {1-(cis-4-{[6-[(Dimethylamino)methyl]-2-(trifluoromethyl)pyrimidin-4-yl]oxy}cyclohexyl)-3-[4-(7H-pyrrolo[2,3-d]pyrimidin-4-yl)-1H-pyrazol-1-yl]azetidin-3-yl}acetonitrile tetrakis(trifluoroacetate)], the “JAK2/JAK1 IC50 ratio” value at human JAK2 (Table 4) is “≧10”. Further, at human JAK1 (Table 4), the IC50 is < 10 nM.
For `COCCNC(=O)c1cc(O[C@H]2CC[C@@H](N3CC(CC#N)(n4cc(-c5ncnc6[nH]ccc56)cn4)C3)CC2)nc(C(F)(F)F)n1` [Example 50, 6-[(cis-4-{3-(cyanomethyl)-3-[4-(7H-pyrrolo[2,3-d]pyrimidin-4-yl)-1H-pyrazol-1-yl]azetidin-1-yl}cyclohexyl)oxy]-N-(2-methoxyethyl)-2-(trifluoromethyl)pyrimidine-4-carboxamide bis(trifluoroacetate)], in that order: “≧10” and < 10 nM.
As to `N#CCC1(n2cc(-c3ncnc4[nH]ccc34)cn2)CN([C@H]2CC[C@@H](Oc3cc(C(=O)N4CC(C#N)C4)cc(C(F)(F)F)n3)CC2)C1` [Example 91, 1-[2-[(cis-4-{3-(cyanomethyl)-3-[4-(7H-pyrrolo[2,3-d]pyrimidin-4-yl)-1H-pyrazol-1-yl]azetidin-1-yl}cyclohexyl)oxy]-6-(trifluoromethyl)isonicotinoyl]azetidine-3-carbonitrile bis(trifluoroacetate)], the “JAK2/JAK1 IC50 ratio” value at human JAK2 (Table 5) is listed as “≧10”. At human JAK1 (Table 5), the 50% inhibitory concentration (IC50) was < 10 nM.
With `N#CCC1(n2cc(-c3ncnc4[nH]ccc34)cn2)CN([C@H]2CC[C@@H](Oc3cc(Cn4ccnc4)cc(C(F)(F)F)n3)CC2)C1` [Example 99, {1-(cis-4-{[4-(1H-imidazol-1-ylmethyl)-6-(trifluoromethyl)pyridin-2-yl]oxy}cyclohexyl)-3-[4-(7H-pyrrolo[2,3-d]pyrimidin-4-yl)-1H-pyrazol-1-yl]azetidin-3-yl}acetonitrile tetrakis(trifluoroacetate)], the “JAK2/JAK1 IC50 ratio” value on human JAK2 (Table 5) was “≧10”. The half-inhibitory concentration (IC50) against human JAK1 (Table 5) is < 10 nM.
Consider `N#CCC1(n2cc(-c3ncnc4[nH]ccc34)cn2)CN([C@H]2CC[C@@H](Oc3cc(CO)nc(C(F)(F)F)n3)CC2)C1` [Example 2, {1-(cis-4-{[6-(Hydroxymethyl)-2-(trifluoromethyl)pyrimidin-4-yl]oxy}cyclohexyl)-3-[4-(7H-pyrrolo[2,3-d]pyrimidin-4-yl)-1H-pyrazol-1-yl]azetidin-3-yl}acetonitrile bis(trifluoroacetate)], for which the “JAK2/JAK1 IC50 ratio” value on human JAK2 (Table 4) is “≧10”. The IC50 on human JAK1 (Table 4) was < 10 nM.
For `CCNCc1cc(O[C@H]2CC[C@@H](N3CC(CC#N)(n4cc(-c5ncnc6[nH]ccc56)cn4)C3)CC2)nc(C(F)(F)F)n1` [Example 5, {1-(cis-4-{[6-[(Ethylamino)methyl]-2-(trifluoromethyl)pyrimidin-4-yl]oxy}cyclohexyl)-3-[4-(7H-pyrrolo[2,3-d]pyrimidin-4-yl)-1H-pyrazol-1-yl]azetidin-3-yl}acetonitrile tris(trifluoroacetate)], in that order: “≧10” and < 10 nM.
For `N#CCC1(n2cc(-c3ncnc4[nH]ccc34)cn2)CN([C@H]2CC[C@@H](Oc3cc(CN4CCC[C@@H]4CO)nc(C(F)(F)F)n3)CC2)C1` [Example 29, {1-(cis-4-{[6-{[(2S)-2-(hydroxymethyl)pyrrolidin-1-yl]methyl}-2-(trifluoromethyl)pyrimidin-4-yl]oxy}cyclohexyl)-3-[4-(7H-pyrrolo[2,3-d]pyrimidin-4-yl)-1H-pyrazol-1-yl]azetidin-3-yl}acetonitrile tris(trifluoroacetate) (salt)] the same measures were “≧10” and < 10 nM.
For `CC1(NCc2cc(O[C@H]3CC[C@@H](N4CC(CC#N)(n5cc(-c6ncnc7[nH]ccc67)cn5)C4)CC3)nc(C(F)(F)F)c2)COC1` [Example 98, {1-(cis-4-{[4-{[(3-methyloxetan-3-yl)amino]methyl}-6-(trifluoromethyl)pyridin-2-yl]oxy}cyclohexyl)-3-[4-(7H-pyrrolo[2,3-d]pyrimidin-4-yl)-1H-pyrazol-1-yl]azetidin-3-yl}acetonitrile tetrakis(trifluoroacetate)], the “JAK2/JAK1 IC50 ratio” value at human JAK2 (Table 5) is reported as “≧10”. Moreover, the 50% inhibitory concentration (IC50) against human JAK1 (Table 5) was < 10 nM.
Regarding `N#CCC1(n2cc(-c3ncnc4[nH]ccc34)cn2)CN([C@H]2CC[C@@H](Oc3cc(CNCC4(CO)CC4)nc(C(F)(F)F)n3)CC2)C1` [Example 38, {1-(cis-4-{[6-[({[1-(hydroxymethyl)cyclopropyl]methyl}-amino)methyl]-2-(trifluoromethyl)pyrimidin-4-yl]oxy}cyclohexyl)-3-[4-(7H-pyrrolo[2,3-d]pyrimidin-4-yl)-1H-pyrazol-1-yl]azetidin-3-yl}acetonitrile tris(trifluoroacetate) (salt)], the “JAK2/JAK1 IC50 ratio” value at human JAK2 (Table 4) was “≧10”. Besides, on human JAK1 (Table 4), the half-inhibitory concentration (IC50) was < 10 nM.
For `CC(C)NCc1cc(O[C@H]2CC[C@@H](N3CC(CC#N)(n4cc(-c5ncnc6[nH]ccc56)cn4)C3)CC2)nc(C(F)(F)F)n1.O=C(O)C(F)(F)F.O=C(O)C(F)(F)F.O=C(O)C(F)(F)F` [Example 6, {1-(cis-4-{[6-[(isopropylamino)methyl]-2-(trifluoromethyl)pyrimidin-4-yl]oxy}cyclohexyl)-3-[4-(7H-pyrrolo[2,3-d]pyrimidin-4-yl)-1H-pyrazol-1-yl]azetidin-3-yl}acetonitrile tris(trifluoroacetate)] the same measures were “≧10” and < 10 nM.
With `N#CCC1(n2cc(-c3ncnc4[nH]ccc34)cn2)CN([C@H]2CC[C@@H](Oc3cc(C(=O)NC4CC4)cc(C(F)(F)F)n3)CC2)C1` [Example 86, 2-[(cis-4-{3-(cyanomethyl)-3-[4-(7H-pyrrolo[2,3-d]pyrimidin-4-yl)-1H-pyrazol-1-yl]azetidin-1-yl}cyclohexyl)oxy]-N-cyclopropyl-6-(trifluoromethyl)isonicotinamide bis(trifluoroacetate)], the “JAK2/JAK1 IC50 ratio” value at human JAK2 (Table 5) is given as “≧10”. Besides, at human JAK1 (Table 5), the IC50 was < 10 nM.
Turning to `COCCNCc1cc(O[C@H]2CC[C@@H](N3CC(CC#N)(n4cc(-c5ncnc6[nH]ccc56)cn4)C3)CC2)nc(C(F)(F)F)n1.O=C(O)C(F)(F)F.O=C(O)C(F)(F)F.O=C(O)C(F)(F)F` [Example 22, {1-(cis-4-{[6-{[(2-methoxyethyl)amino]methyl}-2-(trifluoromethyl)pyrimidin-4-yl]oxy}cyclohexyl)-3-[4-(7H-pyrrolo[2,3-d]pyrimidin-4-yl)-1H-pyrazol-1-yl]azetidin-3-yl}acetonitrile tris(trifluoroacetate)], the “JAK2/JAK1 IC50 ratio” value on human JAK2 (Table 4) is reported as “≧10”. In addition, at human JAK1 (Table 4), the IC50 was < 10 nM.
